From patent US20250270213A1, “PI3Ka INHIBITORS” (Synnovation Therapeutics, Inc., priority 2022, published 2025)

Tested on: T47D (PIK3CA H1047R) cells
Assay: pS473 AKT assay with 2.5% FBS, T47D cells
Assay type: cell-based
Conditions: Homo sapiens, pSer473 AKT, DMEM with 2.5% FBS, 2 h treatment, read-out: T47D_IC50
Procedure, shortened: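 T47D (PIK3CA H1047R) cells were switched to DMEM with 2.5% FBS and exposed to compounds for 2 h. After paraformaldehyde fixation, pSer473 AKT was detected by in-cell ELISA (rabbit primary, HRP anti-rabbit secondary, chemiluminescence); IC50 values were fitted from the concentration series.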

IC50, < 1 µM:
CNC(=O)c1ccc(-c2nc(Cl)ccc2NC(C)c2cc(C)cc3c(=O)n4c5c(cnn5CCC4)c23)cn1 (stereo not shown) [Compound 310, 6-chloro-N-methyl-3-((1-(8-methyl-6-oxo-4,5-dihydro-3H,6H-2,2a,5a-triazaaceanthrylen-10-yl)ethyl)amino)-[2,3′-bipyridine]-6′-carboxamide]
Cc1cc(C(C)Nc2ccc(Cl)nc2-c2ccn(C)c(=O)c2)c2c(c1)c(=O)n(C)c1c2cnn1CCO (stereo not shown) [Example 255, 9-[1-[[6-chloro-2-(1-methyl-2-oxo-4-pyridyl)-3-pyridyl]amino]ethyl]-3-(2-hydroxyethyl)-4,7-dimethyl-pyrazolo[3,4-c]isoquinolin-5-one]
Cc1cc(C(C)Nc2ccc(Cl)nc2C(=O)O)c2c(c1)c(=O)n1c3c2cnn3C(C)CC1 (stereo not shown) [Compound I-39, 6-Chloro-3-((1-(3,8-dimethyl-6-oxo-4,5-dihydro-3H,6H-2,2a,5a-triazaaceanthrylen-10-yl)ethyl)amino)picolinic acid]
Cc1cc(C(C)Nc2ccc(Cl)nc2-c2ncn(C)n2)c2c(c1)c(=O)n(CC(F)F)c1c2cnn1CCO (stereo not shown) [Example 259, 9-[1-[[6-Chloro-2-(1-methyl-1,2,4-triazol-3-yl)-3-pyridyl]amino]ethyl]-4-(2,2-difluoroethyl)-3-(2-hydroxyethyl)-7-methyl-pyrazolo[3,4-c]isoquinolin-5-one]
Cc1cc(C(C)Nc2ccc(Cl)nc2-c2cn(C)nc2C)c2c(c1)c(=O)n(C)c1c2cnn1C1CCN(C)CC1 (stereo not shown) [Compound 165, 9-[1-[[6-chloro-2-(1,3-dimethylpyrazol-4-yl)-3-pyridyl]amino]ethyl]-4,7-dimethyl-3-(1-methyl-4-piperidyl)pyrazolo[3,4-c]isoquinolin-5-one]
Cc1cc(C(C)Nc2ccc(Cl)nc2-c2cncnc2)c2c(c1)c(=O)n(C)c1c2cnn1CCO (stereo not shown) [Example 252, 9-(1-((6-chloro-2-(pyrimidin-5-yl)pyridin-3-yl)amino)ethyl)-3-(2-hydroxyethyl)-4,7-dimethyl-3,4-dihydro-5H-pyrazolo[3,4-c]isoquinolin-5-one]
Cc1cc(C(C)Nc2ccc(Cl)nc2-c2ccc3c(cnn3C)c2)c2c(c1)c(=O)n(C)c1c2cnn1CCO (stereo not shown) [Example 247, 9-(1-((6-chloro-2-(1-methyl-1H-indazol-5-yl)pyridin-3-yl)amino)ethyl)-3-(2-hydroxyethyl)-4,7-dimethyl-3,4-dihydro-5H-pyrazolo[3,4-c]isoquinolin-5-one]
[2H]C([2H])([2H])n1c(=O)c2cc(C)cc(C(C)Nc3ccc(Cl)nc3-c3nnn(C)n3)c2c2cnn(C3CCN(C)C3)c21 (stereo not shown) [Compound 139, 9-(1-((6-chloro-2-(2-methyl-2H-tetrazol-5-yl)pyridin-3-yl)amino)ethyl)-7-methyl-4-(methyl-d3)-3-(1-methylpyrrolidin-3-yl)-3,4-dihydro-5H-pyrazolo[3,4-c]isoquinolin-5-one]
Cc1cc(C(C)Nc2ccccc2C(=O)O)c2c(c1)c(=O)n(C)c1c(-c3ccccn3)ncn21 (stereo not shown) [Compound I-6, 2-((1-(4,7-Dimethyl-5-oxo-3-(pyridin-2-yl)-4,5-dihydroimidazo[1,5-a]quinazolin-9-yl)ethyl)amino)benzoic acid]
Cc1cc(C(C)Nc2ccc(Cl)nc2-c2ncn(C)n2)c2c(c1)c(=O)n(C)c1c2cnn1C1CCN(C(=O)c2ccnn2C)CC1 (stereo not shown) [Example 195, 9-(1-((6-chloro-2-(1-methyl-1H-1,2,4-triazol-3-yl)pyridin-3-yl)amino)ethyl)-4,7-dimethyl-3-(1-(1-methyl-1H-pyrazole-5-carbonyl)piperidin-4-yl)-3,4-dihydro-5H-pyrazolo[3,4-c]isoquinolin-5-one]
Cc1cc(C(C)Nc2ccc(Cl)nc2-c2ncn(C)n2)c2c(c1)c(=O)n(C)c1c2cnn1C1CN(C(=O)CN(C)C)C1 (stereo not shown) [Compound 104, 9-(1-((6-Chloro-2-(1-methyl-1H-1,2,4-triazol-3-yl)pyridin-3-yl)amino)ethyl)-3-(1-(dimethylglycyl)azetidin-3-yl)-4,7-dimethyl-3,4-dihydro-5H-pyrazolo[3,4-c]isoquinolin-5-one]
Cc1cc(C(C)Nc2ccc(Cl)nc2-c2cnn(C)c2)c2c(c1)c(=O)n(C)c1c2cnn1CCO (stereo not shown) [Example 244, 9-(1-((6-chloro-2-(1-methyl-1H-pyrazol-4-yl)pyridin-3-yl)amino)ethyl)-3-(2-hydroxyethyl)-4,7-dimethyl-3,4-dihydro-5H-pyrazolo[3,4-c]isoquinolin-5-one]
CCOC(=O)N1CCC(n2cc3c4c(C(C)Nc5ccc(Cl)nc5-c5cnn(C)c5)cc(C)cc4c(=O)n(C)c3n2)CC1 (stereo not shown) [Example 210, ethyl 4-(9-(1-((6-chloro-2-(1-methyl-1H-pyrazol-4-yl)pyridin-3-yl)amino)ethyl)-4,7-dimethyl-5-oxo-4,5-dihydro-2H-pyrazolo[3,4-c]isoquinolin-2-yl)piperidine-1-carboxylate]
Cc1cc(C(C)Nc2ccc(Cl)nc2-c2ncn(C)n2)c2c(c1)c(=O)n(C)c1c2cnn1C1CN(C2CC2)C1 (stereo not shown) [Compound 90, 9-(1-((6-chloro-2-(1-methyl-1H-1,2,4-triazol-3-yl)pyridin-3-yl)amino)ethyl)-3-(1-cyclopropylazetidin-3-yl)-4,7-dimethyl-3,4-dihydro-5H-pyrazolo[3,4-c]isoquinolin-5-one]
CNC(=O)c1ccc(-c2cc(Cl)ccc2NC(C)c2cc(C)cc3c(=O)n(C)c4c(cnn4C4CN(C)C4)c23)cn1 (stereo not shown) [Compound 86, 5-(5-chloro-2-((1-(4,7-dimethyl-3-(1-methylazetidin-3-yl)-5-oxo-4,5-dihydro-3H-pyrazolo[3,4-c]isoquinolin-9-yl)ethyl)amino)phenyl)-N-methylpicolinamide]
Cc1cc(C(C)Nc2ccc(Cl)nc2-c2ccc(C#N)cc2)c2c(c1)c(=O)n(C)c1c(C(=O)N(C)C)ncn21 (stereo not shown) [Compound 126, 9-(1-((6-chloro-2-(4-cyanophenyl)pyridin-3-yl)amino)ethyl)-N,N,4,7-tetramethyl-5-oxo-4,5-dihydroimidazo[1,5-a]quinazoline-3-carboxamide]
COCCOc1ccc2c3c(C(C)Nc4ccccc4C(=O)O)cc(C)cc3c(=O)n(C)c2n1 (stereo not shown) [Compound I-34, 2-[1-[3-(2-Methoxyethoxy)-5,8-dimethyl-6-oxo-benzo[c][1,8]naphthyridin-10-yl]ethylamino]benzoic acid]
Cc1cc(C(C)Nc2ccc(C)nc2-c2nnn(C)n2)c2c(c1)c(=O)n1c3c2cnn3CCC1 (stereo not shown) [Compound 326, 8-Methyl-10-(1-((6-methyl-2-(2-methyl-2H-tetrazol-5-yl)pyridin-3-yl)amino)ethyl)-4,5-dihydro-3H,6H-2,2a,5a-triazaaceanthrylen-6-one]
CNC(=O)c1ccc(-c2nc(Cl)ccc2NC(C)c2cc(C)cc3c(=O)n(CC(F)F)c4c(cnn4CCO)c23)cn1 (stereo not shown) [Example 260, 5-[6-Chloro-3-[1-[4-(2,2-difluoroethyl)-3-(2-hydroxyethyl)-7-methyl-5-oxo-pyrazolo[3,4-c]isoquinolin-9-yl]ethylamino]-2-pyridyl]-N-methyl-pyridine-2-carboxamide]
